Laboratory results as given in PubChem BioAssay AID1963975 (Molecular Pharmacology Branch, DTP, NCI, 2024).

System: 624824-186-R-J2-PDC multicell spheroids, viability
Experiment: Anticancer human tumor 624824-186-R-J2-PDC patient-derived colon adenocarcinoma cell line growth inhibition [PI3K]
Settings: for IC50: curve of first compound; for viability, T/C: stronger effect = lower value
How it was run: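 Complex 3D spheroids (cancer cells + endothelial HUVEC + mesenchymal stem cells); drug pairs of targeted agent x inavolisib/alpelisib/duvelisib/copanlisib; half-log series from ~Cmax, max 10 microM if Cmax unknown; endpoint viability.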

[1] = second compound 0.00316 µM, first compound 0.0316 µM
[2] = second compound 0.00316 µM, first compound 0.1 µM
[3] = second compound 0.00316 µM, first compound 0.316 µM
[4] = second compound 0.00316 µM, first compound 1 µM
[5] = second compound 0.00316 µM, first compound 3.16 µM
[6] = second compound 0.00316 µM, first compound 10 µM
[7] = second compound 0.01 µM, first compound 0.0316 µM
[8] = second compound 0.01 µM, first compound 0.1 µM
[9] = second compound 0.01 µM, first compound 0.316 µM
[10] = second compound 0.01 µM, first compound 1 µM
[11] = second compound 0.01 µM, first compound 3.16 µM
[12] = second compound 0.01 µM, first compound 10 µM
[13] = second compound 0.0316 µM, first compound 0.0316 µM
[14] = second compound 0.0316 µM, first compound 0.1 µM
[15] = second compound 0.0316 µM, first compound 0.316 µM
[16] = second compound 0.0316 µM, first compound 1 µM
[17] = second compound 0.0316 µM, first compound 3.16 µM
[18] = second compound 0.0316 µM, first compound 10 µM
[19] = second compound 0.1 µM, first compound 0.0316 µM
[20] = second compound 0.1 µM, first compound 0.1 µM
[21] = second compound 0.1 µM, first compound 0.316 µM
[22] = second compound 0.1 µM, first compound 1 µM
[23] = second compound 0.1 µM, first compound 3.16 µM
[24] = second compound 0.1 µM, first compound 10 µM
[25] = second compound 0.316 µM, first compound 0.0316 µM
[26] = second compound 0.316 µM, first compound 0.1 µM
[27] = second compound 0.316 µM, first compound 0.316 µM
[28] = second compound 0.316 µM, first compound 1 µM
[29] = second compound 0.316 µM, first compound 3.16 µM
[30] = second compound 0.316 µM, first compound 10 µM
[31] = second compound 1 µM, first compound 0.0316 µM
[32] = second compound 1 µM, first compound 0.1 µM
[33] = second compound 1 µM, first compound 0.316 µM
[34] = second compound 1 µM, first compound 1 µM
[35] = second compound 1 µM, first compound 3.16 µM
[36] = second compound 1 µM, first compound 10 µM
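Note: spheroids exposed to agents for 7 days before viability read.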
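Throughout, for viability, T/C: 100% = DMSO vehicle treated spheroids.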

C#Cc1c(F)ccc2cc(O)cc(-c3ncc4c(N5CC6CCC(C5)N6)nc(OCC56CCCN5CC(F)C6)nc4c3F)c12 (stereo not drawn) + COc1c(OCCCN2CCOCC2)ccc2c3n(c(=NC(=O)c4cnc(N)nc4)nc12)CCN3
IC50 (second compound 0.00316 µM): > 10 µM
IC50 (second compound 0.01 µM): > 10 µM
IC50 (second compound 0.0316 µM): > 10 µM
IC50 (second compound 0.1 µM): > 10 µM
IC50 (second compound 0.316 µM): > 10 µM
IC50 (second compound 1 µM): 6.78 µM
viability, T/C [1]: 89.2%
viability, T/C [2]: 101%
viability, T/C [3]: 73.6%
viability, T/C [4]: 91.6%
viability, T/C [5]: 87.9%
viability, T/C [6]: 80.8%
viability, T/C [7]: 92.8%
viability, T/C [8]: 90.2%
viability, T/C [9]: 89.8%
viability, T/C [10]: 78.5%
viability, T/C [11]: 89.9%
viability, T/C [12]: 95.4%
viability, T/C [13]: 94.3%
viability, T/C [14]: 77.2%
viability, T/C [15]: 92.6%
viability, T/C [16]: 77.5%
viability, T/C [17]: 80.6%
viability, T/C [18]: 81.5%
viability, T/C [19]: 78.8%
viability, T/C [20]: 76.9%
viability, T/C [21]: 66.2%
viability, T/C [22]: 68.3%
viability, T/C [23]: 72.8%
viability, T/C [24]: 72.2%
viability, T/C [25]: 72.6%
viability, T/C [26]: 59.4%
viability, T/C [27]: 65%
viability, T/C [28]: 60.4%
viability, T/C [29]: 58.5%
viability, T/C [30]: 56.4%
viability, T/C [31]: 60.1%
viability, T/C [32]: 59.9%
viability, T/C [33]: 52.9%
viability, T/C [34]: 56%
viability, T/C [35]: 50.8%
viability, T/C [36]: 49.3%

CC(Cn1ccc(-c2ccc(C#N)c(Cl)c2)n1)NC(=O)c1cc(C(C)O)[nH]n1 (stereo not drawn) + COc1c(OCCCN2CCOCC2)ccc2c3n(c(=NC(=O)c4cnc(N)nc4)nc12)CCN3
IC50 (second compound 0.00316 µM): > 10 µM
IC50 (second compound 0.01 µM): > 10 µM
IC50 (second compound 0.0316 µM): > 10 µM
IC50 (second compound 0.1 µM): > 10 µM
IC50 (second compound 0.316 µM): > 10 µM
IC50 (second compound 1 µM): > 10 µM
viability, T/C [1]: 86.3%
viability, T/C [2]: 79%
viability, T/C [3]: 106%
viability, T/C [4]: 98.5%
viability, T/C [5]: 71.5%
viability, T/C [6]: 117%
viability, T/C [7]: 87.1%
viability, T/C [8]: 89.7%
viability, T/C [9]: 98%
viability, T/C [10]: 84.8%
viability, T/C [11]: 99.6%
viability, T/C [12]: 114%
viability, T/C [13]: 102%
viability, T/C [14]: 88.1%
viability, T/C [15]: 90.7%
viability, T/C [16]: 84.5%
viability, T/C [17]: 92%
viability, T/C [18]: 97.2%
viability, T/C [19]: 76.9%
viability, T/C [20]: 73.2%
viability, T/C [21]: 71.6%
viability, T/C [22]: 76.6%
viability, T/C [23]: 85.1%
viability, T/C [24]: 80%
viability, T/C [25]: 61.4%
viability, T/C [26]: 70.2%
viability, T/C [27]: 55.3%
viability, T/C [28]: 62.2%
viability, T/C [29]: 68.1%
viability, T/C [30]: 63.8%
viability, T/C [31]: 63%
viability, T/C [32]: 58.6%
viability, T/C [33]: 62.7%
viability, T/C [34]: 63.6%
viability, T/C [35]: 63.4%
viability, T/C [36]: 59%

CC1(C)CCC(Nc2ncc(C(F)(F)F)c(-c3c[nH]c4c(P(C)(C)=O)c(C#N)ccc34)n2)CN1 (stereo not drawn) + COc1c(OCCCN2CCOCC2)ccc2c3n(c(=NC(=O)c4cnc(N)nc4)nc12)CCN3
IC50 (second compound 0.00316 µM): 3.5 µM
IC50 (second compound 0.01 µM): 3.48 µM
IC50 (second compound 0.0316 µM): 2.23 µM
IC50 (second compound 0.1 µM): 1.45 µM
IC50 (second compound 0.316 µM): 0.28 µM
IC50 (second compound 1 µM): < 0.0316 µM
viability, T/C [1]: 78.3%
viability, T/C [2]: 104%
viability, T/C [3]: 92.2%
viability, T/C [4]: 89.3%
viability, T/C [5]: 54.4%
viability, T/C [6]: 4.77%
viability, T/C [7]: 73.5%
viability, T/C [8]: 76.8%
viability, T/C [9]: 94.8%
viability, T/C [10]: 83.1%
viability, T/C [11]: 54.2%
viability, T/C [12]: 4.78%
viability, T/C [13]: 82.5%
viability, T/C [14]: 75.9%
viability, T/C [15]: 71.5%
viability, T/C [16]: 61.7%
viability, T/C [17]: 46.9%
viability, T/C [18]: 3.67%
viability, T/C [19]: 63.6%
viability, T/C [20]: 56.9%
viability, T/C [21]: 55.1%
viability, T/C [22]: 49.1%
viability, T/C [23]: 45.6%
viability, T/C [24]: 4.59%
viability, T/C [25]: 54%
viability, T/C [26]: 51.7%
viability, T/C [27]: 47.9%
viability, T/C [28]: 43.8%
viability, T/C [29]: 35.4%
viability, T/C [30]: 2.98%
viability, T/C [31]: 43%
viability, T/C [32]: 44.8%
viability, T/C [33]: 42.7%
viability, T/C [34]: 37.2%
viability, T/C [35]: 32.5%
viability, T/C [36]: 2.59%

Cn1cnc2c(F)c(Nc3ccc(Br)cc3Cl)c(C(=O)NOCCO)cc21 + Cc1nc(NC(=O)N2CCCC2C(N)=O)sc1-c1ccnc(C(C)(C)C(F)(F)F)c1
IC50 (second compound 0.0316 µM): > 3 µM
IC50 (second compound 0.1 µM): > 3 µM
IC50 (second compound 0.316 µM): > 3 µM
IC50 (second compound 1 µM): > 3 µM
IC50 (second compound 3.16 µM): 0.69 µM
IC50 (second compound 10 µM): 0.0836 µM
viability, T/C (second compound 0.0316 µM, first compound 0.00949 µM): 90.2%
viability, T/C (second compound 0.0316 µM, first compound 0.03 µM): 68.3%
viability, T/C (second compound 0.0316 µM, first compound 0.0949 µM): 78%
viability, T/C (second compound 0.0316 µM, first compound 0.3 µM): 91.2%
viability, T/C (second compound 0.0316 µM, first compound 0.949 µM): 89.4%
viability, T/C (second compound 0.0316 µM, first compound 3 µM): 76.4%
viability, T/C (second compound 0.1 µM, first compound 0.00949 µM): 82.8%
viability, T/C (second compound 0.1 µM, first compound 0.03 µM): 79.7%
viability, T/C (second compound 0.1 µM, first compound 0.0949 µM): 72.9%
viability, T/C (second compound 0.1 µM, first compound 0.3 µM): 78.5%
viability, T/C (second compound 0.1 µM, first compound 0.949 µM): 83.1%
viability, T/C (second compound 0.1 µM, first compound 3 µM): 77.4%
viability, T/C (second compound 0.316 µM, first compound 0.00949 µM): 86.7%
viability, T/C (second compound 0.316 µM, first compound 0.03 µM): 71.8%
viability, T/C (second compound 0.316 µM, first compound 0.0949 µM): 74.3%
viability, T/C (second compound 0.316 µM, first compound 0.3 µM): 70.5%
viability, T/C (second compound 0.316 µM, first compound 0.949 µM): 77.7%
viability, T/C (second compound 0.316 µM, first compound 3 µM): 66.7%
viability, T/C (second compound 1 µM, first compound 0.00949 µM): 90.3%
viability, T/C (second compound 1 µM, first compound 0.03 µM): 61.8%
viability, T/C (second compound 1 µM, first compound 0.0949 µM): 66.6%
viability, T/C (second compound 1 µM, first compound 0.3 µM): 62.7%
viability, T/C (second compound 1 µM, first compound 0.949 µM): 77.5%
viability, T/C (second compound 1 µM, first compound 3 µM): 51.5%
viability, T/C (second compound 3.16 µM, first compound 0.00949 µM): 82.2%
viability, T/C (second compound 3.16 µM, first compound 0.03 µM): 73.8%
viability, T/C (second compound 3.16 µM, first compound 0.0949 µM): 79.6%
viability, T/C (second compound 3.16 µM, first compound 0.3 µM): 63.8%
viability, T/C (second compound 3.16 µM, first compound 0.949 µM): 44.6%
viability, T/C (second compound 3.16 µM, first compound 3 µM): 22.2%
viability, T/C (second compound 10 µM, first compound 0.00949 µM): 63%
viability, T/C (second compound 10 µM, first compound 0.03 µM): 58.4%
viability, T/C (second compound 10 µM, first compound 0.0949 µM): 43.1%
viability, T/C (second compound 10 µM, first compound 0.3 µM): 44.5%
viability, T/C (second compound 10 µM, first compound 0.949 µM): 17.7%
viability, T/C (second compound 10 µM, first compound 3 µM): 1.93%
